According to patent US5605929A, “Methods and compositions for inhibiting 5α-reductase activity” (priority 1995, dated 1997):

Assays:
[1] = molecular target: T1, human 5α-reductase isozyme type 1 (Homo sapiens, UniProt P18405); experiment: [3H]4-MA binding, human type 1 isozyme expressed in Rat-1A cells; conditions: read-out: % Inhibition of [^3 H]4-MA binding
T1 construct: expressed in transfected cells; host or cells: Rat-1A cells infected with pMV7 retrovirus; microsomes of these cells
T1 sequence (P18405 1-259): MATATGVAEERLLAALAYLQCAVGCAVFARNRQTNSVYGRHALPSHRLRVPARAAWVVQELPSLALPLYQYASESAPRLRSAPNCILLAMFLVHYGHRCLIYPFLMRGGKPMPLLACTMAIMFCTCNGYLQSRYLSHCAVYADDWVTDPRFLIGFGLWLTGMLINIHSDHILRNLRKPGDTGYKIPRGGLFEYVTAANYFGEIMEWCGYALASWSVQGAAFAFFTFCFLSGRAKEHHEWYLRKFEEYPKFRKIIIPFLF
Text: (§1) The cDNAs for the human type 1 and 2 5α-reductases were isolated from human prostate λZAP II™ cDNA libraries using the published sequence of the 5α-reductases, PCR™ and standard library screening techniques (Sambrook et al., 1989). The type 1 and 2 cDNAs correspond to nucleotides 31-870 and 28-829, respectively, of the published sequences for these 5α-reductases (Anderson and Russell, 1990; Anderson et al., 1991). The type 1 and 2 cDNAs were subcloned into the retroviral expression vector pMV7 (Kirschmeier et al., 1988) and high titer stocks of virus containing the type 1 and 2 cDNAs were generated using the packaging cells BOSC 23 293 (Kirschmeier et al., 1988). Rat.-1A cells (Pear et al., 1993) were infected with virus (Topp, 1981) and cells containing integrated retrovirus were selected for G418-SO4 resistance, (Brown and Scott, 1987).
(§2) Microsomes were prepared as described previously (Liang and Liao, 1992) from the liver of adult Sprague-Dawley female rats or Rat-1A cells expressing a specific type of human 5α-reductase. […] The data presented was based on the rate of reaction.
(§3) [^3 H]4-MA binding assay were described in detail previously (Liang and Liao, 1992; Liang et al., 1983). […] The reaction was started by the addition of 25 μl of microsomes (25 μg protein). After 30-60 min incubation at 0° C., the [^3 H]4-MA bound to microsomes was collected on a Whatman GF/F glass fiber, washed and radioactivity determined (Liang and Liao, 1992).

[2] = molecular target: T2, human 5α-reductase isozyme type 2 (Homo sapiens, UniProt P31213); experiment: 4-[14C]testosterone reduction, human type 2 isozyme; assay type: biochemical
T2 construct: expressed in transfected cells; host or cells: Rat-1A cells infected with pMV7 retrovirus; microsomes of these cells
T2 sequence (P31213 1-254): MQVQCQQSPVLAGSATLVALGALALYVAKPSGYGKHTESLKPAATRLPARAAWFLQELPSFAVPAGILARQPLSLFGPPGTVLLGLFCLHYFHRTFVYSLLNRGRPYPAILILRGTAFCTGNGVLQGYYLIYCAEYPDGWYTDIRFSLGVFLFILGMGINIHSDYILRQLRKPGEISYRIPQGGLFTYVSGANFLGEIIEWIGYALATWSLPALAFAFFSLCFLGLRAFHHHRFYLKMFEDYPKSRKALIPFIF
Text: as §1, §2
(§4) The reaction was started by the addition of 25 μl of microsomes (25 μg protein). The mixture was incubated at 37° for 30-60 min and stopped by addition of 0.5 ml of ethyl acetate and mixing for 1 min. The organic solvent extract was removed under vacuum.

[3] = molecular target: T1, human 5α-reductase isozyme type 1; experiment: 4-[14C]testosterone reduction, human type 1 isozyme; assay type: biochemical
Text: as §1, §2, §4

[4] = molecular target: T2, human 5α-reductase isozyme type 2; experiment: [3H]4-MA binding, human type 2 isozyme expressed in Rat-1A cells; conditions: read-out: % Inhibition of [^3 H]4-MA binding
Text: as §1, §2, §3

Soybean lipoxygenase = Soybean lipoxygenase (Glycine max, UniProt P08170); conditions: cited from earlier work
Soybean lipoxygenase, sequence (P08170 whole entry): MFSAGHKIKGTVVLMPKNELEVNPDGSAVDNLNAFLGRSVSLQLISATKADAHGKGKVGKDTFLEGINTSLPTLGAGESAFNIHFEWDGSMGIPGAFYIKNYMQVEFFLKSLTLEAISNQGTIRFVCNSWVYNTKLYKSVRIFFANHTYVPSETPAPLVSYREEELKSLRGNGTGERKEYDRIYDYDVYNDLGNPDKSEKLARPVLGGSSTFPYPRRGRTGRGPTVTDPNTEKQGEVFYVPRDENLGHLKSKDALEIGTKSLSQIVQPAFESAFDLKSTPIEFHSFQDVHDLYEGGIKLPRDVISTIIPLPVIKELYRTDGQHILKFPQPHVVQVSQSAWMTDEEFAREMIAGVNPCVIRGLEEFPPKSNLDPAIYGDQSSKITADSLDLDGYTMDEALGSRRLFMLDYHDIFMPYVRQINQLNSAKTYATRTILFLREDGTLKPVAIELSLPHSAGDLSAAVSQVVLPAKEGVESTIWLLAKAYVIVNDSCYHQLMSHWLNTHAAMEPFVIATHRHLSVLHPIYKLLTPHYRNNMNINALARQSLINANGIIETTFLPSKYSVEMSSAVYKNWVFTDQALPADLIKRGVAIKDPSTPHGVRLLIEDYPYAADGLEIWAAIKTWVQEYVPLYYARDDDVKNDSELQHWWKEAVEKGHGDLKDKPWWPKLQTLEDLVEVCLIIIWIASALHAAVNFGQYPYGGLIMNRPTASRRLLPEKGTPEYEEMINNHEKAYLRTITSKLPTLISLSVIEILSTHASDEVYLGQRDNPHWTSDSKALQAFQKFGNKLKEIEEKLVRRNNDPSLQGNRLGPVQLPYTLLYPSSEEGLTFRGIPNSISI

[5] = test system: androgen-dependent organs; assay type: in vivo, rat; conditions: up to 15 mg per day
Experimental: The control rats were injected with 0.3 ml of 30% ethanol.

[6] = molecular target: T3, 5α-Reductase of Rat Liver Microsomes (Rattus norvegicus, UniProt P24008); experiment: [3H]4-MA binding assay, rat liver microsomes (tea catechins); conditions: read-out: % Inhibition of [^3 H]4-MA binding
T3 sequence (P24008 1-259): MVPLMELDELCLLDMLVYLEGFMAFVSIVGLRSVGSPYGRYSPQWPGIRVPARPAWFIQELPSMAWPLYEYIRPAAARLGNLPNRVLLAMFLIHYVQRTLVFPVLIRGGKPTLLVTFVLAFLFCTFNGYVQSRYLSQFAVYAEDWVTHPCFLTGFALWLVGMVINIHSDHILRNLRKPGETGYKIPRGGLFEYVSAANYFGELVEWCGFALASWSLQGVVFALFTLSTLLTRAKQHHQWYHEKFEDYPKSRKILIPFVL
Experimental: Microsomes were prepared as described previously (Liang and Liao, 1992) from the liver of adult Sprague-Dawley female rats or Rat-1A cells expressing a specific type of human 5α-reductase. Each study was carried out in duplicate or triplicate which were usually within 10% of each other. Several studies were preformed to assure that the results shown are representative. The data presented was based on the rate of reaction.
as §3

5α-reductase = conditions: cited from earlier work
[7] = test system: 17β-steroid dehydrogenase; experiment: 4-Androstenedione formation from [3H]testosterone by PC-3 cells (17β-steroid dehydrogenase); assay type: cell-based, human
PC-3 = experiment: 5α-DHT formation from [3H]testosterone by PC-3 cells; assay type: cell-based, human
[8] = test system: Human Prostatic Cancer Cells; experiment: Cell morphology during 2 hour incubation; assay type: cell-based
hamster flank organ = experiment: Flank organ, castrated immature male hamsters, topical treatment; assay type: in vivo, Syrian golden hamster
In short: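 Castrated immature male hamsters (5 per group) received 5 μl once daily on the right flank organ of ethanol vehicle, androgen (T or 5α-DHT), fatty acid, or androgen plus fatty acid. The left organ was left untreated. Pigmented macule and sebaceous gland growth were assessed with caliper long and short axes, as mean ± SD.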

[9] = molecular target: T3, 5α-Reductase of Rat Liver Microsomes; experiment: biochemical
Experimental: Briefly, the binding assay solution, in a final volume of 0.15 ml, contained microsomes (2-20 μg of protein), 0.08 μCi of [^3 H]4-MA, 0.1 mM-NADPH, 1 mM-dithiothreitol and 50 mM-potassium phosphate, pH 7.0, with or without the indicated amount of a lipid or an inhibitor preparation. Lipids were dissolved in ethanol and added in 1-5 μl volumes. Control tubes received the same amount of ethanol. After incubation at 0° C. for 1 h, the [^3 H]4-MA bound to microsomes was determined by collecting microsomes on a Whatman GF/1F glass fibre filter and washing with 10 ml of 20 mM-potassium phosphate, pH 7.0, containing 0.01% CHAPS to remove unbound [^3 H]4-MA.
Microsomes were prepared at 4° C. from a buffered 0.32M-sucrose homogenate of human liver and from the livers of adult Sprague-Dawley female rats by differential centrifugation as described previously (Liang et al., 1990), and were used in the assay of 5α-reductase activity. In some experiments, microsomes were solubilized with 0.1% polyoxyethylene ether W-1 as described previously (Liang et al., 1990), except for the substitution of polyoxyethylene ether W-1 for Lubrol-WX.

[10] = read-out: % Inhibition of 5α-reduction

Work on Oc1cc(O)c2c(c1)O[C@H](c1cc(O)c(O)c(O)c1)[C@H](O)C2 [EGC, (-)Epigallocatechin] yielded an inhibition at 1 µM [1] of under 10%, an inhibition at 3 µM [1] of under 10% and an inhibition at 10 µM [1] of under 10%. For the same molecule, the inhibition at 30 µM [1] was under 10%, the inhibition at 100 µM [1] was 23% and the “activity on type 2 isozyme” value ([2]; enzymatic assay, concentrations below 30 μM for ECG/EGCG) was “not active”. It also gave an inhibition at 1 µM [2, 10] of under 10%, an inhibition at 3 µM [2, 10] of under 10% and an inhibition at 10 µM [2, 10] of under 10%. For the same molecule, the inhibition at 30 µM [2, 10] was under 10%, the inhibition at 100 µM [2, 10] was under 10% and the “activity on type 1 isozyme” value ([3]; enzymatic assay) was “not active”. The inhibition at 1 µM [3, 10] was under 10%, the inhibition at 3 µM [3, 10] was under 10% and the inhibition at 10 µM [3, 10] was under 10%. The inhibition at 30 µM [3, 10] was under 10%, the inhibition at 1 µM [4] was under 10% and the inhibition at 3 µM [4] was under 10%. The inhibition at 10 µM [4] was under 10%, the inhibition at 30 µM [4] was 13% and the inhibition at 100 µM [4] was 14%. For the same molecule, the IC50 (Soybean lipoxygenase) was 21 µM, the “effect on the body weight” value [5] was “No significant effect” and the inhibition at 5 µM [6] was under 10%. The inhibition at 10 µM [6] was under 10%, the inhibition at 20 µM [6] was under 10% and the inhibition at 40 µM [6] was under 10%. For the same molecule, the inhibition at 200 µM [6] was under 10%.
For Cc1c(O[C@@H](C)c2ccc(CC(C)C)cc2)ccc(C(=O)Nc2ccccc2OCCCC(=O)O)c1C [ONO-3805], the “5α-reductase inhibition” value (5α-reductase) is listed as 5α-reductase inhibitory activity.
For CCCCCCCCCCCCCCCCCC(=O)O [Stearic acid], the “4-Androstendione formed (% of control)” value ([7]; 5 μM) was 103 ± 2 % of control, the “4-Androstendione formed (% of control)” value ([7]; 20 μM) was 106 ± 5 % of control and the “effect on metabolism of testosterone to 4-androstenedione (17β-steroid dehydrogenase)” value ([7]; words) was “did not affect”. The “effect on 5α-reductase reduction” value (PC-3; 5 to 20 μM, words) was “did not affect”, the activity at 5 µM (PC-3; Homo sapiens, PC-3, 5 μM, read-out: 5α-DHT formed (% of control)) was 123 ± 2% and the activity at 20 µM (PC-3; Homo sapiens, PC-3, 20 μM, read-out: 5α-DHT formed (% of control)) was 121 ± 5%. For the same molecule, the “visible change in cell morphology” value [8] was “did not produce any visible”, the “Pigmented Macule, Untreated (L)” value (hamster flank organ; Table 4, 1 mg fatty acid alone, 18 days) was 4.4 ± 0.4 mm^2 and the “Pigmented Macule, Untreated (L)” value (hamster flank organ; Table 4, 2 mg fatty acid alone, 18 days) was 4.6 ± 1.4 mm^2. The “Pigmented Macule, Untreated (L)” value (hamster flank organ; Table 4, T 0.5 μg + 1 mg fatty acid) was 4.3 ± 0.6 mm^2, the “Pigmented Macule, Untreated (L)” value (hamster flank organ; Table 4, T 0.5 μg + 2 mg fatty acid) was 4.2 ± 0.4 mm^2 and the “significance vs T alone” value (hamster flank organ; Table 4, T + 1 mg fatty acid) was “N.S”. For the same molecule, the “significance vs T alone” value (hamster flank organ; Table 4, T + 2 mg fatty acid) was “N.S”, the “inhibition of T-induced growth of pigmented macule” value (hamster flank organ; hamster, in vivo) was “did not inhibit” and the inhibition at 10 µM ([9]; read-out: % Inhibition of [^3 H]4-MA binding, Table 1, 10 μM) was under 10%. The inhibition at 40 µM ([9]; read-out: % Inhibition of [^3 H]4-MA binding, Table 1, 40 μM) was under 10%, the inhibition at 200 µM ([9]; read-out: % Inhibition of [^3 H]4-MA binding, Table 1, 200 μM) was under 10% and the inhibition at 10 µM ([9]; read-out: % Inhibition of [^3 H]4-MA binding, Table 2, 10 μM) was under 10%. The inhibition at 40 µM ([9]; read-out: % Inhibition of [^3 H]4-MA binding, Table 2, 40 μM) was under 10% and the inhibition at 200 µM ([9]; read-out: % Inhibition of [^3 H]4-MA binding, Table 2, 200 μM) was under 10%.
